Structures can show the parent of a compound that is named as a salt.
Experiments:
Settings in all cases: exposure time 48 h
[1] = test system: Caenorhabditis elegans N2; experiment: AC50 for larval growth inhibition (Hill fit); higher = less potent
In short: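 Synchronised C. elegans N2 L1 larvae (50 per well, 96-well plates) were grown for 48 h at 20°C in K-medium with killed OP50, 1% DMSO and 0.5–200 µM chemical. The COPAS Biosort measured each worm's size as extinction, which was log-transformed and averaged per well. AC50 came from a constrained Hill fit by weighted genetic-algorithm regression on wells with at least 10 worms. Out-of-range values are censored.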

[2] = test system: Caenorhabditis elegans N2; experiment: lowest effective concentration for larval growth inhibition (size below effect threshold); higher = less potent
In short: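 L1 larvae of C. elegans N2 (50 per 96-well) were grown in K-medium with killed bacteria and 1% DMSO, with the chemical at 0.5, 1, 5, 10, 50, 100 or 200 µM, for 48 h at 20°C. Per-worm extinction from the Biosort stood for size and was log-transformed into well means. For each chemical, the lowest effective concentration is the first dose where plate-adjusted mean size falls under the threshold and stays under it at the higher doses, using a threshold of 5.665.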

[3] = test system: Caenorhabditis elegans N2; experiment: mean nematode size ln(EXT) after 48 h, plate-adjusted (DMSO control set to 6) (ln(EXT), control-adjusted); higher = larger nematodes / less growth inhibition
In short: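 Worms were measured individually for extinction on the Biosort after 48 h at 20°C. They began as synchronised C. elegans N2 L1 larvae in K-medium with killed OP50, 1% DMSO and 0.5–200 µM chemical. Once debris had been removed by a growth model, values were natural-logged and averaged per well to give mean size. The plate adjustment subtracted the vehicle control mean and added 6.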

| Structure (SMILES) | AC50 for larval growth inhibition [1] | lowest effective concentration [2] | mean nematode size ln(EXT) (ln) ([3]; 0.5 µM) | mean nematode size ln(EXT) (ln) ([3]; 1 µM) | mean nematode size ln(EXT) (ln) ([3]; 5 µM) | mean nematode size ln(EXT) (ln) ([3]; 10 µM) | mean nematode size ln(EXT) (ln) ([3]; 50 µM) | mean nematode size ln(EXT) (ln) ([3]; 100 µM) | mean nematode size ln(EXT) (ln) ([3]; 200 µM) |
| --- | --- | --- | --- | --- | --- | --- | --- | --- | --- |
| Cn1sc(Cl)cc1=O [5-Chloro-2-methyl-3(2H)-isothiazolone] | > 200 µM | 200 µM | 5.96 | 5.93 | 5.95 | 6 | 5.9 | 5.82 | 5.55 |
| CCSC(=O)N(CC(C)C)CC(C)C [Butylate] | 196 µM | 200 µM | 5.97 | 5.89 | 6.11 | 5.97 | 6.05 | 6.06 | 5.65 |
| C#CCOS(=O)OC1CCCCC1Oc1ccc(C(C)(C)C)cc1 (stereo not given) [Propargite] | 150 µM | 200 µM | 5.95 | 6.19 | 5.99 | 6.05 | 5.82 | 5.88 | 3.35 |
| CC/C(=C(\c1ccccc1)c1ccc(OCCN(C)C)cc1)c1ccccc1 [Tamoxifen] | 20.8 µM | 50 µM | 5.79 | 5.76 | 5.65 | 5.67 | 3.84 | 3.93 | 3.53 |
| CNS(=O)(=O)c1cc(C(=O)N2CCC(CCN3C4CCC3CC(n3c(C)nc5ccccc53)C4)(c3cccc(F)c3)CC2)c(Cl)cc1F (stereo not given) | > 200 µM | 50 µM | 5.68 | 5.79 | 5.77 | 5.78 | 5.62 | 5.38 | 5.41 |
| CCCCOC(=O)c1ccc(O)cc1 [Butylparaben] | 103 µM | 200 µM | 5.84 | 5.8 | 5.75 | 5.78 | 5.96 | 5.68 | 5.19 |
| O=c1n(CC2CO2)c(=O)n(CC2CO2)c(=O)n1CC1CO1 (stereo not given) [Triglycidyl isocyanurate] | > 200 µM | 100 µM | 5.88 | 5.83 | 5.84 | 5.89 | 5.86 | 5.42 | 5.65 |
| CCOc1cccc(C2(N3CCN(c4ccccc4)CC3)CCC(C)CC2)c1 (stereo not given) | > 200 µM | 200 µM | 5.73 | 5.87 | 5.72 | 5.79 | 5.69 | 5.67 | 5.56 |
| c1ccc2[nH]c(-c3cscn3)nc2c1 [Thiabendazole] | > 200 µM | 200 µM | 6.04 | 6.23 | 6.02 | 5.98 | 5.78 | 5.93 | 4.91 |
| O=C(Nc1ccc([N+](=O)[O-])cc1Cl)c1cc(Cl)ccc1O [Niclosamide] | 98.6 µM | 200 µM | 5.85 | 5.9 | 5.86 | 6.1 | 6.02 | 5.74 | 5.59 |
| C#CC(C)(C)NC(=O)c1cc(Cl)cc(Cl)c1 [Propyzamide] | > 200 µM | 200 µM | 5.98 | 5.91 | 5.98 | 6.01 | 5.92 | 5.91 | 5.63 |
| CCNP(=S)(OC)O/C(C)=C/C(=O)OC(C)C (stereo not given) [Propetamphos] | > 200 µM | 50 µM | 5.88 | 5.88 | 5.75 | 5.71 | 4.95 | 5.45 | 3.98 |
| Nc1ccc(Nc2ccccc2)cc1 [N-Phenyl-1,4-benzenediamine] | 71.8 µM | 50 µM | 5.84 | 5.84 | 5.76 | 5.72 | 5.43 | 5.15 | 5.25 |
| Nc1ccc(Oc2ccc(N)cc2)cc1 [4,4'-Oxydianiline] | > 200 µM | 200 µM | 5.84 | 5.87 | 5.84 | 5.83 | 5.54 | 5.83 | 5.39 |
| ClC(Cl)(Cl)c1ccccc1 [Benzotrichloride] | > 200 µM | 200 µM | 5.84 | 5.87 | 5.73 | 5.82 | 5.78 | 5.75 | 4.93 |
| CCc1cc(SCc2sc(-c3ccc(C(F)(F)F)cc3)nc2CN2CCN(c3ccc(OC)cc3)CC2)ccc1OCC(=O)O | 9.23 µM | 5 µM | 6 | 5.67 | 5.57 | 4.69 | 4.47 | 4.29 | 3.99 |
| Cc1c(C(=O)O)c(O)cc2c1C(=O)c1c(O)c([C@@H]3O[C@H](CO)[C@@H](O)[C@H](O)[C@H]3O)c(O)c(O)c1C2=O [Carminic acid] | 115 µM | 100 µM | 5.97 | 5.92 | 5.91 | 5.96 | 5.97 | 5.46 | – |
| c1ccc(/N=N/c2ccccc2)cc1 [Azobenzene] | 91.6 µM | 10 µM | 5.73 | 5.67 | 5.67 | 5.61 | 5.21 | 4.48 | 3.5 |
| COC(=O)NC(=S)Nc1ccccc1NC(=S)NC(=O)OC [Thiophanate-methyl] | > 200 µM | 200 µM | 5.88 | 5.84 | 5.76 | 5.87 | 5.83 | 5.73 | 5.41 |
| CCCOc1sc(C(=O)N2CCC(c3cc(CN)ccc3F)CC2)c(C)c1Br | 9.86 µM | 5 µM | 5.68 | 5.67 | 5.54 | 4.86 | 3.73 | 3.92 | – |
| Oc1c(Cl)c(Cl)c(Cl)c(Cl)c1Cl [Pentachlorophenol] | 146 µM | 50 µM | 5.82 | 5.94 | 5.92 | 5.89 | 5.6 | 5.01 | 4.2 |
| CCOS(=O)(=O)OCC [Diethyl sulfate] | 55 µM | 100 µM | 5.87 | 5.85 | 5.83 | 5.88 | 5.88 | 4.98 | 5.42 |
| Clc1cc(Cl)c2c(c1)N=C1CCCCCN1C2 | > 200 µM | 100 µM | 5.91 | 5.88 | 5.72 | 5.8 | 5.67 | 5.54 | 4.82 |
